Data: patent publication US8889874B2, “Imidazolone-chalcone derivatives as potential anticancer agent and process for the preparation thereof” (Council of Scientific and Industrial Research, priority 2010, dated 2014)
Where two headings read alike, the source gives them in different places.

Columns and labels:
Test in all cases: NCI anticancer screen, SRB assay, 48 h
Format in all cases: cell-based, human
Conditions in all cases: Homo sapiens
MDA-MB-231/ATCC (breast) = system: MDA-MB-231/ATCC (breast)
Outline: (§1)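 Compounds were tested across fifty three human cancer cell lines from nine tumour types. Each line got a dose-response curve of at least five concentrations at 10-fold dilutions, with continuous drug exposure and sulforhodamine B protein staining to estimate viability or growth.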

OVCAR-8 (ovarian) = system: OVCAR-8 (ovarian)
Outline: as §1

TK-10 (renal) = system: TK-10 (renal)
Outline: as §1

[1] = system: EKVX (non-small cell lung)
Outline: as §1

[2] = system: NCI-H226 (non-small cell lung)
Outline: as §1

BT-549 (breast) = system: BT-549 (breast)
Outline: as §1

MALME-3M (melanoma) = system: MALME-3M (melanoma)
Outline: as §1

[3] = system: A549/ATCC (non-small cell lung)
Outline: as §1

PC-3 (prostate) = system: PC-3 (prostate)
Outline: as §1

[4] = system: K-562 (leukemia cell line)
Outline: as §1

[5] = system: NCI-H23 (non-small cell lung)
Outline: as §1

SF-295 (CNS) = system: SF-295 (CNS)
Outline: as §1

MCF7 (breast) = system: MCF7 (breast)
Outline: as §1

KM12 (colon) = system: KM12 (colon)
Outline: as §1

A498 (renal) = system: A498 (renal)
Outline: as §1

HS 578T (breast) = system: HS 578T (breast)
Outline: as §1

CAKI-1 (renal) = system: CAKI-1 (renal)
Outline: as §1

786-0 (renal) = system: 786-0 (renal)
Outline: as §1

MDA-MB-435 (melanoma) = system: MDA-MB-435 (melanoma)
Outline: as §1

SK-OV-3 (ovarian) = system: SK-OV-3 (ovarian)
Outline: as §1

LOX IMVI (melanoma) = system: LOX IMVI (melanoma)
Outline: as §1

UACC-257 (melanoma) = system: UACC-257 (melanoma)
Outline: as §1

[6] = system: NCI-H522 (non-small cell lung)
Outline: as §1

HCT-116 (colon) = system: HCT-116 (colon)
Outline: as §1

HCT-15 (colon) = system: HCT-15 (colon)
Outline: as §1

SNB-75 (CNS) = system: SNB-75 (CNS)
Outline: as §1

[7] = system: NCI-H322M (non-small cell lung)
Outline: as §1

UACC-62 (melanoma) = system: UACC-62 (melanoma)
Outline: as §1

SW-620 (colon) = system: SW-620 (colon)
Outline: as §1

SK-MEL-5 (melanoma) = system: SK-MEL-5 (melanoma)
Outline: as §1

SF-268 (CNS) = system: SF-268 (CNS)
Outline: as §1

HT29 (colon) = system: HT29 (colon)
Outline: as §1

TD-47D (breast) = system: TD-47D (breast)
Outline: as §1

[8] = system: RPMI-8226 (leukemia cell line)
Outline: as §1

OVCAR-4 (ovarian) = system: OVCAR-4 (ovarian)
Outline: as §1

OVCAR-3 (ovarian) = system: OVCAR-3 (ovarian)
Outline: as §1

[9] = 48 h exposure, SRB, read-out: GI50
[10] = read-out: pGI50 (-log of molar concentration causing 50% inhibition of net cell growth) (converted)

`COc1ccc(-c2cn(-c3cccc(C(=O)/C=C/c4ccc(O)c(OC)c4)c3)c(=O)[nH]2)cc1` [3b, 1-3-[(E)-3-(4-hydroxy-3-methoxyphenyl)-2-propenoyl]phenyl-4-(4-methoxyphenyl)-2,3-dihydro-1H-2-imidazolone] gave a GI50 (MDA-MB-231/ATCC (breast); [9]) of 5.25 µM, a GI50 (MDA-MB-231/ATCC (breast); [10]) of 5.25 µM and a GI50 (OVCAR-8 (ovarian); [9]) of 4.97 µM. It also gave a GI50 (OVCAR-8 (ovarian); [10]) of 5.01 µM, a GI50 (TK-10 (renal); [9]) of 6.08 µM and a GI50 (TK-10 (renal); [10]) of 6.03 µM. The GI50 [1, 9] was 13.4 µM, the GI50 [1, 10] was 13.5 µM and the GI50 [2, 9] was 4.1 µM. The GI50 [2, 10] was 4.07 µM, the GI50 (BT-549 (breast); [9]) was 4.57 µM and the GI50 (BT-549 (breast); [10]) was 4.57 µM. It also gave a GI50 (MALME-3M (melanoma); Malme-3M, read-out: pGI50 (-log of molar concentration causing 50% inhibition of net cell growth) (converted)) of 4.47 µM, a GI50 (MALME-3M (melanoma); MALME-3M, 48 h exposure, SRB, read-out: GI50) of 4.42 µM and a GI50 [3, 9] of 4.14 µM. For the same compound, the GI50 [3, 10] was 4.17 µM, the GI50 (PC-3 (prostate); PC-3, read-out: pGI50 (-log of molar concentration causing 50% inhibition of net cell growth) (converted)) was 3.02 µM and the GI50 (PC-3 (prostate); one prostate cancer cell line (PC-3), exposure at least 48 hrs, read-out: GI50) was 3.05 µM. The GI50 ([4]; K562, 48 h exposure, SRB, read-out: GI50) was 2.35 µM, the GI50 ([4]; K562, read-out: pGI50 (-log of molar concentration causing 50% inhibition of net cell growth) (converted)) was 2.34 µM and the GI50 [5, 9] was 2.85 µM. It also gave a GI50 [5, 10] of 2.82 µM, a GI50 (SF-295 (CNS); [9]) of 13.9 µM and a GI50 (SF-295 (CNS); [10]) of 13.8 µM. The GI50 (MCF7 (breast); [9]) was 3.18 µM, the GI50 (MCF7 (breast); [10]) was 3.16 µM and the GI50 (KM12 (colon); [9]) was 1.77 µM. It also gave a GI50 (KM12 (colon); [10]) of 1.78 µM, a GI50 (A498 (renal); [9]) of 3.72 µM and a GI50 (A498 (renal); [10]) of 3.72 µM. It also gave a GI50 (HS 578T (breast); [9]) of 4.25 µM, a GI50 (HS 578T (breast); [10]) of 4.27 µM and a GI50 (CAKI-1 (renal); [9]) of 4.99 µM. It also gave a GI50 (CAKI-1 (renal); [10]) of 5.01 µM, a GI50 (786-0 (renal); [9]) of 4.53 µM and a GI50 (786-0 (renal); [10]) of 4.57 µM. The GI50 (MDA-MB-435 (melanoma); [9]) was 3.35 µM, the GI50 (MDA-MB-435 (melanoma); [10]) was 3.39 µM and the GI50 (SK-OV-3 (ovarian); [9]) was 4.77 µM. The GI50 (SK-OV-3 (ovarian); [10]) was 4.79 µM, the GI50 (LOX IMVI (melanoma); [9]) was 2.44 µM and the GI50 (LOX IMVI (melanoma); [10]) was 2.45 µM. It also gave a GI50 (UACC-257 (melanoma); [9]) of 13.3 µM, a GI50 (UACC-257 (melanoma); [10]) of 13.2 µM and a GI50 [6, 9] of 3.48 µM. The GI50 [6, 10] was 3.47 µM, the GI50 (HCT-116 (colon); [9]) was 1.93 µM and the GI50 (HCT-116 (colon); [10]) was 1.95 µM. It also gave a GI50 (HCT-15 (colon); [9]) of 3.15 µM, a GI50 (HCT-15 (colon); [10]) of 3.16 µM and a GI50 (SNB-75 (CNS); [9]) of 4.73 µM. For the same compound, the GI50 (SNB-75 (CNS); [10]) was 4.68 µM, the GI50 [7, 9] was 8.2 µM and the GI50 [7, 10] was 8.13 µM. The GI50 (UACC-62 (melanoma); [9]) was 3.96 µM, the GI50 (UACC-62 (melanoma); [10]) was 3.98 µM and the GI50 (SW-620 (colon); [9]) was 2.5 µM. It also gave a GI50 (SW-620 (colon); [10]) of 2.51 µM, a GI50 (SK-MEL-5 (melanoma); [9]) of 2.63 µM and a GI50 (SK-MEL-5 (melanoma); [10]) of 2.63 µM. The GI50 (SF-268 (CNS); [9]) was 3.4 µM, the GI50 (SF-268 (CNS); [10]) was 3.39 µM and the GI50 (HT29 (colon); HT-29, 48 h exposure, SRB, read-out: GI50) was 3.84 µM. The GI50 (HT29 (colon); HT-29, read-out: pGI50 (-log of molar concentration causing 50% inhibition of net cell growth) (converted)) was 3.8 µM, the GI50 (TD-47D (breast); [9]) was 3.6 µM and the GI50 (TD-47D (breast); [10]) was 3.63 µM. For the same compound, the GI50 [8, 9] was 1.35 µM, the GI50 [8, 10] was 1.35 µM and the GI50 (OVCAR-4 (ovarian); [9]) was 6.08 µM. It also gave a GI50 (OVCAR-4 (ovarian); [10]) of 6.03 µM, a GI50 (OVCAR-3 (ovarian); [9]) of 2.7 µM and a GI50 (OVCAR-3 (ovarian); [10]) of 2.69 µM.
